Source: article PMC7006680, “Sulfocoumarins as dual inhibitors of human carbonic anhydrase isoforms IX/XII and of human thioredoxin reductase” (Journal of Enzyme Inhibition and Medicinal Chemistry, 2020)

Legend:
TrxR = target: T1, TrxR (Homo sapiens, UniProt Q16881); test: TrxR activity by DTNB reduction assay in SHSY5Y cell lysate; type: biochemical
T1 sequence (Q16881 1-649): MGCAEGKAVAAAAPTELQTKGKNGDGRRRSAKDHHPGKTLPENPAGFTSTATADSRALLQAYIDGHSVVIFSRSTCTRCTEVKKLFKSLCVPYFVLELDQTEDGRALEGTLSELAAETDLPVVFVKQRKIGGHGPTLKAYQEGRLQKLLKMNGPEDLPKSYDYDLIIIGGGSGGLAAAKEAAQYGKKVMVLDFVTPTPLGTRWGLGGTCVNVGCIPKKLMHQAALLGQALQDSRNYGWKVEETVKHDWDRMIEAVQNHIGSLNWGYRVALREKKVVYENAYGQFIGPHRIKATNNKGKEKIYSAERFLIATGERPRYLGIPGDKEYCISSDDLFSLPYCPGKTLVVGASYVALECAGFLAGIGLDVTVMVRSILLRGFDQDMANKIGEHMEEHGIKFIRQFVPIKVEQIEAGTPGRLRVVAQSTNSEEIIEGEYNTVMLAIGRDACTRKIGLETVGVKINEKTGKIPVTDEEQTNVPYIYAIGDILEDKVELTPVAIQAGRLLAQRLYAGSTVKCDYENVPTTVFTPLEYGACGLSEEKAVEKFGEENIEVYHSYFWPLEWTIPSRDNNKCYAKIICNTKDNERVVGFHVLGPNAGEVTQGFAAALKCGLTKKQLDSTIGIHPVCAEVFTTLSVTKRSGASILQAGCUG
Description: Determination of TrxR activity in SHSY5Y cell lysate. TrxR activity in cell lysate was measured in 96-well plates using previously described methods[27]^,[28]. For TrxR activity measurement, compounds of different concentrations were incubated with 50 µg of cell lysate and 200 µM NADPH in a volume of 100 µL of 50 mM Tris–HCl and 1 mM EDTA, pH 7.5 (TE buffer), for different time points in 96-well plates at room temperature. […] TrxR activity was calculated as a percentage of enzyme activity of that of DMSO vehicle treated sample.

hCA I = target: T2, hCA I (Homo sapiens, UniProt P00915); test: Stopped-flow CO2 hydration CA inhibition assay, hCA I; type: biochemical; details: recombinant enzyme, 15 min pre-incubation
T2 construct: made in house
Description: (§1) An Applied Photophysics stopped-flow instrument has been used for assaying the CA catalysed CO2 hydration activity[22]. Phenol red (at a concentration of 0.2 mM) has been used as indicator, working at the absorbance maximum of 557 nm, with 20 mM Tris (pH 8.3) as buffer, and 20 mM Na2SO4 (for maintaining constant the ionic strength), following the initial rates of the CA-catalysed CO2 hydration reaction for a period of 10–100 s. The CO2 concentrations ranged from 1.7 to 17 mM for the determination of the kinetic parameters and inhibition constants. […] The uncatalysed rates were determined in the same manner and subtracted from the total observed rates. Stock solutions of inhibitor (0.1 mM) were prepared in distilled-deionised water and dilutions up to 0.005 nM were done thereafter with the assay buffer. Inhibitor and enzyme solutions were pre-incubated together for 15 min at room temperature prior to assay, in order to allow for the formation of the E–I complex. The inhibition constants were obtained by non-linear least-squares methods using PRISM 3 and the Cheng-Prusoff equation, as reported earlier, and represent the mean from at least three different determinations.

hCA II = target: T3, hCA II (Homo sapiens, UniProt P00918); test: Stopped-flow CO2 hydration CA inhibition assay, hCA II; type: biochemical; details: recombinant enzyme, 15 min pre-incubation
T3 construct: made in house
Description: as §1

[1] = test system: MCF-7 (breast adenocarcinoma); test: MTT cytotoxicity assay, MCF-7; type: cell-based, human
Description: (§2) About 2000–4000 cells per well (depending on line nature) were placed in 96-well plates and after 24 h compounds were added to the wells. Untreated cells were used as a control. The plates were incubated for 48 h, 37 °C, and 5% CO2. The number of surviving cells was determined using 3-(4,5-dimethylthiazol-2-yl)-2,5-diphenyltetrazolinium bromide (MTT). MTT-test: after incubating culture medium was removed and 200 µL fresh medium with 20 µL MTT (2 mg/mL in HBSS) was added in each well of the plate. After incubation (3 h, 37 °C, 5% CO2), the medium with MTT was removed and 200 µL DMSO were added at once to each sample. The samples were tested at 540 nm on Thermo Scientific Multiskan EX microplate photometer. The half-maximal inhibitory concentration (IC50) of each compound was calculated using Graph Pad Prism® 3.0 (GraphPad Software, La Jolla, CA).

[2] = test system: HT-1080 (human fibrosarcoma); test: MTT cytotoxicity assay, HT-1080; type: cell-based
Description: as §2

[3] = test system: SHSY5Y (human neuroblastoma); test: MTT cytotoxicity assay, SHSY5Y; type: cell-based; details: 48 h incubation
Description: as §2

hCA IX = target: T4, hCA IX (Homo sapiens, UniProt Q16790); test: Stopped-flow CO2 hydration CA inhibition assay, hCA IX; type: biochemical; details: recombinant enzyme, 15 min pre-incubation
T4 construct: made in house
Description: as §1

hCA XII = target: T5, hCA XII (Homo sapiens, UniProt O43570); test: Stopped-flow CO2 hydration CA inhibition assay, hCA XII; type: biochemical; details: recombinant enzyme, 15 min pre-incubation
T5 construct: made in house
Description: as §1

[4] = Homo sapiens, MCF7, 48 h incubation
[5] = Homo sapiens, HT-1080, 48 h incubation

T2 sequence (P00915 whole entry): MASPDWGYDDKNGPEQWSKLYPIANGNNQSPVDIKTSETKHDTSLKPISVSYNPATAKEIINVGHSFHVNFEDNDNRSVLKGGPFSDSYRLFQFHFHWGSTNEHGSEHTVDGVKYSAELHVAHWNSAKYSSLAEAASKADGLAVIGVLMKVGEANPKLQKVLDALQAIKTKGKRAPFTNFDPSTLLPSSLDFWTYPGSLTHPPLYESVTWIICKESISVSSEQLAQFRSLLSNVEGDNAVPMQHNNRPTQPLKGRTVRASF
T5 sequence (O43570 25-354): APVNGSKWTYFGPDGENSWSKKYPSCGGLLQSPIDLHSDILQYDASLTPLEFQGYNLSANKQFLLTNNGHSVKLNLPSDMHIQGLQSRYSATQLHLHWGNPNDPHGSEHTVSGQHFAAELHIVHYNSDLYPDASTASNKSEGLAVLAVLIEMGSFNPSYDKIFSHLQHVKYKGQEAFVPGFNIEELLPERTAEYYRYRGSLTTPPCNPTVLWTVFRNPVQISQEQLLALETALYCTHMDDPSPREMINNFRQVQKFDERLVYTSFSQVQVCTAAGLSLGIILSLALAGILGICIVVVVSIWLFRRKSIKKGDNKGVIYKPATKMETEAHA

Row | Compound | IC50 (TrxR) [µM] | Ki (hCA I) [µM] | Ki (hCA II) [µM] | IC50 ([1]; 48 h incubation) [µM] | IC50 ([2]; 48 h incubation) [µM] | IC50 [3] [µM] | Ki (hCA IX) [nM] | IC50 [1, 4] [µM] | Ki (hCA XII) [nM] | IC50 [2, 5] [µM] | IC50 ([3]; Homo sapiens, SH-SY5Y) [µM]
1 | 1-(2,2-Dioxido-1,2-benzoxathiin-6-yl)-4-(4-fluorophenyl)-1H-1,2,3-triazole [Compound 1b] | 40 | > 10 | > 10 | – | – | – | – | – | – | – | –
2 | 1-(2,2-Dioxido-1,2-benzoxathiin-6-yl)-5-(4-fluorophenyl)-1H-1,2,3-triazole [Compound 1d] | 125 | > 10 | > 10 | 50 | 7.9 | 18.5 | – | – | – | – | –
3 | O=S1(=O)C=Cc2cc(-c3nnnn3-c3ccccc3)ccc2O1 [Compound 1c, 5-(2,2-Dioxido-1,2-benzoxathiin-6-yl)-1-phenyl-1H-tetrazole] | – | – | – | – | – | – | 8.5 | 101 | 7.1 | 12.3 | 18.4
4 | O=S1(=O)C=Cc2cc(-n3cc(-c4ccc(Cl)cc4)nn3)ccc2O1 [Compound 1a, 4-(4-Chlorophenyl)-1-(2,2-dioxido-1,2-benzoxathiin-6-yl)-1H-1,2,3-triazole] | – | – | – | – | – | – | 7.8 | 1.8 | 17.7 | 11 | 22
